In US10189809B2, “SGC stimulators” (Ironwood Pharmaceuticals, Inc., priority 2010, dated 2019):
Like-named read-outs stand apart in the source and are kept apart here.

Key:
[1] = biological target: T1, soluble guanylate cyclase (sGC) (Homo sapiens (Human), UniProt Q02108+Q02153); assay: sGC-HEK-cGMP assay run in the absence of SNP (HEK WC assay); format: cell-based; conditions: for HEK WC Assay (fold increase at 10 μM): compound at 10 μM; for HEK WC Assay (fold increase at 10 μM) / HEK WC Assay (fold increase at 30 μM): no SNP, increase in the sGC receptor activity; for HEK WC Assay (fold increase at 30 μM) / HEK WC Assay (fold increase at 30 μM in the absence of SNP): compound at 30 μM
T1 sequence (Q02153 whole entry): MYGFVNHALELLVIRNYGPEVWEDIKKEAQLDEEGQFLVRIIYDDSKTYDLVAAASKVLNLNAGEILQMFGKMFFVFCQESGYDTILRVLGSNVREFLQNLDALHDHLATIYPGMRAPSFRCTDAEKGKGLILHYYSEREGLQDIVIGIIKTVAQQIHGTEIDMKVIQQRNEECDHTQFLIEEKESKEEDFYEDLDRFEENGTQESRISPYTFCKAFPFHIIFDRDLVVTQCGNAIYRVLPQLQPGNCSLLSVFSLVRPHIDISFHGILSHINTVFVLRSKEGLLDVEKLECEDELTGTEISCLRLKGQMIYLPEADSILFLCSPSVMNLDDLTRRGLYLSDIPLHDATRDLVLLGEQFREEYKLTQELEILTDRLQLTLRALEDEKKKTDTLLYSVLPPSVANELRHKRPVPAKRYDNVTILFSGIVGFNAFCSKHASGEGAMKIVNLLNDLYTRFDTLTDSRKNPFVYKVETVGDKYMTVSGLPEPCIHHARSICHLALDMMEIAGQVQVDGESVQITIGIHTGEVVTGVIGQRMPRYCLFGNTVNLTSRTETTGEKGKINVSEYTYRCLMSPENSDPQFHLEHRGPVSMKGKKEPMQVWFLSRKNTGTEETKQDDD
T1 sequence (Q02108 whole entry): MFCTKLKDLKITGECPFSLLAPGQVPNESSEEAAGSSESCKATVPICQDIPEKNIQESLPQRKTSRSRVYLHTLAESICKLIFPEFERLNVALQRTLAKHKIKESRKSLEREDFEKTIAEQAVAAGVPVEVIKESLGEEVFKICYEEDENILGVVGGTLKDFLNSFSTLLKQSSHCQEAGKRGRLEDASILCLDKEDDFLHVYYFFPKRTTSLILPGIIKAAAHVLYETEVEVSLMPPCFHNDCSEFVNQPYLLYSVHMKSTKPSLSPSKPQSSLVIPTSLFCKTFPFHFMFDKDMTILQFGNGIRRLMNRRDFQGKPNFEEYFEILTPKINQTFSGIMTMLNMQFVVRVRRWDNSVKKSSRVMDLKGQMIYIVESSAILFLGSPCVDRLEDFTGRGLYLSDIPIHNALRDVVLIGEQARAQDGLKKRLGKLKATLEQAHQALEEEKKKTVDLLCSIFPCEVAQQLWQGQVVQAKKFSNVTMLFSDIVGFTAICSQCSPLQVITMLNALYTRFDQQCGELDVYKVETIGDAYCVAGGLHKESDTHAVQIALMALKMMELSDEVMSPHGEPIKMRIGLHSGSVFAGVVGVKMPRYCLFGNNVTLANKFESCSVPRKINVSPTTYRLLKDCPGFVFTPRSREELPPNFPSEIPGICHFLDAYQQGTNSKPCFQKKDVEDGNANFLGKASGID
Summary of the method: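 HEK293 cells with endogenous sGC, preincubated 15 min at 37° C with 0.5 mM IBMX, then exposed to test compound 10 min at 37° C without SNP. Cells lysed in 0.1 M HCl; cGMP quantified by LC/MS against a standard curve. EC50 from concentration-response curves.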

[2] = biological target: Human soluble guanylate cyclase enzyme (hsGC) (Homo sapiens (Human), UniProt Q02108+Q02153); assay: Purified human sGC enzyme activity assay; format: biochemical
Chain of Human soluble guanylate cyclase enzyme (hsGC) (Q02153 whole entry): as the sequence (Q02153 whole entry) above
Chain of Human soluble guanylate cyclase enzyme (hsGC) (Q02108 whole entry): as the sequence (Q02108 whole entry) above
Experimental: Human soluble guanylate cyclase enzyme (hsGC) obtained from Enzo Inc. (P/N: ALX-201-177) was used to evaluate the activity of test compounds. The assay reactions contained 0.1 M Tris (pH 8.0), 0.5 mg/mL BSA (pH 8.0), 2 mM DTT, 2 mM MgCl2, 300 μM GTP, 1 mM 3-isobutyl-1-methylxanthine (IBMX) and 5 ng human soluble guanylate cyclase enzyme. Test compounds in DMSO were then added (2 μL, 10 or 30 μM final concentration) and incubated (200 μL, 96-well plate format) at 37° C. for 30 minutes. The controls were carried out using 2 μL DMSO. After the 30 minute incubation, the reaction was stopped with the addition of 200 μL of cold methanol. The plate was then centrifuged at 3,200 rpm for 10 minutes at room temperature. Supernatants (200 μL) were collected and transferred to a new 96 well plate for analysis.
An 8 point cGMP (Sigma-Aldrich P/N: G6129) standard curve was prepared in assay buffer ranging from 0.156-20 μM. Samples for the cGMP standard curve were then diluted with an equal volume of methanol resulting in final cGMP concentrations of 0.078-10 μM.
The cGMP standard curve was generated using GraphPad Prism Software.
Calculations: Specific Activity was determined by the amount of cGMP formed (nmoles) per mg of sGC per min. Enzyme “fold-change” was calculated by dividing Specific Activity for test compounds by Specific Activity of DMSO controls.

[3] = biological target: T1, soluble guanylate cyclase (sGC); assay: sGC-HEK-cGMP assay run with SNP incubation (HEK WC assay); format: cell-based; conditions: for HEK WC Assay (fold increase at 30 μM in the presence of 10 μM SNP): compound at 30 μM; for EC50: in the presence of 10 uM SNP
Summary of the method: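 HEK293 cells with endogenous sGC were pretreated with 0.5 mM IBMX for 15 min at 37 °C, then exposed to test compound plus sodium nitroprusside for 10 min at 37 °C.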

[4] = read-out: HEK WC Assay (% Emax at 1 μM with 10 uM SNP)
[5] = read-out: HEK WC Assay (% Emax at 10 μM with 10 uM SNP)
[6] = read-out: HEK WC Assay (% Emax at 30 μM with 10 uM SNP)

Compound | HEK WC Assay (fold increase at 10 μM) [1] | HEK WC Assay (fold increase at 30 μM) [1] | sGC Enzyme (fold increase at 10 μM without SNP) ([2]; 10 μM compound) | sGC Enzyme (fold increase at 30 μM without SNP) ([2]; 30 μM compound) | sGC Enzyme (specific activity at 10 μM) ([2]; 10 μM compound) | sGC Enzyme (specific activity at 30 μM) ([2]; 30 μM compound) | HEK WC Assay (fold increase at 30 μM in the absence of SNP) [1] | HEK WC Assay (fold increase at 30 μM in the presence of 10 μM SNP) [3] | EC50 [3] [µM] | Emax [3, 4] [%] | Emax [3, 5] [%] | Emax [3, 6] [%]
Fc1ccccc1Cn1nc(-c2ncccn2)cc1-c1ccncc1 [Compound I-19] | A (A = no increase to <1 fold increase) | A (A = no increase to <1 fold increase) | A (A = no increase to <2 fold increase) | A (A = no increase to <2 fold increase) |  |  |  |  |  |  |  | 
Fc1ccccc1Cn1nc(-c2ccccn2)cc1-c1cccnc1 [Compound I-20] | A (A = no increase to <1 fold increase) | A (A = no increase to <1 fold increase) | A (A = no increase to <2 fold increase) | A (A = no increase to <2 fold increase) | C (C = 100 to <200) | D (D = 200 to <500) |  |  |  |  |  | 
CC(C)=CC(=O)Nc1cnc(-c2cc(-c3ccon3)n(Cc3ccccc3F)n2)nc1N [Compound I-240] |  |  |  |  |  |  | E (E = 10 to <20 fold increase) | E (E = 10 to <20 fold increase) | < 20 | 60 to 80 | 60 to 80 | 60 to 80
O=S(=O)(c1ccc(F)cc1)c1cnc(-c2cc(-c3ccon3)n(Cc3ccccc3F)n2)nc1O [Compound I-241] |  |  |  |  |  |  | D (D = 5 to <10 fold increase) | E (E = 10 to <20 fold increase) | < 20 | 20 to 40 | 60 to 80 | 40 to 60
Nc1nc(-c2cc(-c3ccon3)n(Cc3ccccc3F)n2)ncc1NC(=O)C1(C(F)(F)F)CCC1 [Compound I-243] |  |  |  |  |  |  | D (D = 5 to <10 fold increase) | E (E = 10 to <20 fold increase) | < 20 | 40 to 60 | 40 to 60 | 60 to 80
Nc1nc(-c2cc(-c3ccon3)n(Cc3ccccc3F)n2)ncc1NC(=O)C(F)(F)c1ccccc1 [Compound I-244] |  |  |  |  |  |  | D (D = 5 to <10 fold increase) | E (E = 10 to <20 fold increase) | 20 to 40 | 20 to 40 | 40 to 60 | 40 to 60
O=c1[nH]c2cnc(-c3cc(-c4ccon4)n(Cc4ccccc4F)n3)nc2[nH]1 [Compound I-281] |  |  |  |  |  |  | D (D = 5 to <10 fold increase) | E (E = 10 to <20 fold increase) | 20 to 40 |  | 60 to 80 | 40 to 60
Fc1ccccc1Cn1nc(-c2ccccn2)cc1-c1cnco1 [Compound I-285] |  |  |  |  |  |  | C (C = 2 to <5 fold increase) | D (D = 5 to <10 fold increase) |  |  | 20 to 40 | 20 to 40
Fc1ccccc1Cn1nc(-c2ccccn2)cc1N1CCC1 [Compound I-287] |  |  |  |  |  |  | B (B = 1 to <2 fold increase) | C (C = 2 to <5 fold increase) |  |  | 0 to 10 | 0 to 10
Fc1ccccc1Cn1nc(-c2ccccn2)cc1N1CCCC1 [Compound I-288] |  |  |  |  |  |  | C (C = 2 to <5 fold increase) | C (C = 2 to <5 fold increase) |  |  |  | 
Fc1ccccc1Cn1nc(-c2ccccn2)cc1-n1cncn1 [Compound I-289] |  |  |  |  |  |  | B (B = 1 to <2 fold increase) | B (B = 1 to <2 fold increase) |  |  | 0 to 10 | 0 to 10
Fc1ccccc1Cn1nc(-c2ncccn2)cc1C1=NCCO1 [Compound I-290] |  |  |  |  |  |  | B (B = 1 to <2 fold increase) | C (C = 2 to <5 fold increase) |  |  | 10 to 20 | 20 to 40
COc1oc(-c2cc(-c3ncccn3)nn2Cc2ccccc2F)nc1C [Compound I-291] |  |  |  |  |  |  | B (B = 1 to <2 fold increase) | B (B = 1 to <2 fold increase) |  |  | 0 to 10 | 0 to 10
